Assay results published in patent US20240041042A1, “1-(PYRIDYL)-5-AZINYLPYRAZOLE DERIVATIVES, AND THEIR USE FOR CONTROL OF UNDESIRED PLANT GROWTH” (Bayer Aktiengesellschaft, priority 2020, published 2024).
Like-named read-outs stand apart in the source and are kept apart here.

Key:
Type in all cases: in vivo
[1] = test system: Alopecurus myosuroides (ALOMY); experiment: Pre-emergence herbicidal action against ALOMY; settings: scored visually after about 3 weeks, 100% = plants have died
Method in brief: (§1)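 Application rates ran to 320 g/ha or lower, with several dosages tested on the same weeds. The compound, as wettable powder or emulsion concentrate, is sprayed pre-emergence onto soil over sown seeds; greenhouse growth follows, and effect is rated visually after roughly 3 weeks.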

[2] = test system: Amaranthus retroflexus (AMARE); experiment: Pre-emergence herbicidal action against AMARE; settings: visual scoring after about 3 weeks vs untreated controls
Method in brief: as §1

[3] = test system: Echinochloa crus-galli (ECHCG); experiment: Pre-emergence herbicidal action against ECHCG; settings: dosage 320 g/ha
Method in brief: as §1

Lolium rigidum (LOLRI) [4] = experiment: Pre-emergence herbicidal action against LOLRI
Method in brief: as §1

[5] = test system: Matricaria inodora (MATIN); experiment: Pre-emergence herbicidal action against MATIN
Method in brief: as §1

[6] = test system: Polygonum convolvulus (POLCO); experiment: Pre-emergence herbicidal action against POLCO
Method in brief: as §1

Setaria viridis (SETVI) [7] = experiment: Pre-emergence herbicidal action against SETVI
Method in brief: as §1

Zea mays (ZEAMX) [8] = settings: pre-emergence, crop plant compatibility, in comparison to untreated controls
Description: Seeds of monocotyledonous and dicotyledonous weed plants and crop plants are placed in plastic or organic planting pots and covered with soil. The compounds of the invention, formulated in the form of wettable powders (WP) or as emulsion concentrates (EC), are then applied to the surface of the covering soil as aqueous suspension or emulsion with addition of 0.5% additive at a water application rate equivalent to 600 l/ha. After the treatment, the pots are placed in a greenhouse and kept under good growth conditions for the trial plants. After about 3 weeks, the effect of the preparations is scored visually in comparison with untreated controls as percentages. For example, 100% activity=the plants have died, 0% activity=like control plants.
The observed effects on selected crop plants are reported here in comparison to the untreated controls (values in %). The appendices “a” “b” and “c” give differentiation by dosage used with otherwise the same crop plants tested.

[9] = test system: Abutilon theophrasti (ABUTH); experiment: Post-emergence herbicidal action against ABUTH; settings: 320 g/ha, visual rating about 3 weeks after treatment vs untreated controls (100% = plants have died, 0% = like control plants)
Method in brief: (§2)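 Post-emergence greenhouse spray, one-leaf stage, 600 l/ha water plus 0.5% additive; WP or EC formulations; application rates 320 g/ha or lower. Visual % damage vs untreated controls at ~3 weeks.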

[10] = test system: Amaranthus retroflexus (AMARE); experiment: Post-emergence herbicidal action against AMARE
Method in brief: as §2

[11] = test system: Echinochloa crus-galli (ECHCG); experiment: Post-emergence herbicidal action against ECHCG
Method in brief: as §2

[12] = test system: Matricaria inodora (MATIN); experiment: Post-emergence herbicidal action against MATIN; settings: dosage 320 g/ha
Method in brief: as §2

[13] = test system: Pharbitis purpurea (PHBPU); experiment: Post-emergence herbicidal action against PHBPU; settings: dosage 320 g/ha
Method in brief: as §2

[14] = test system: Polygonum convolvulus (POLCO); experiment: Post-emergence herbicidal action against POLCO
Method in brief: as §2

Setaria viridis (SETVI) [15] = experiment: Post-emergence herbicidal action against SETVI
Method in brief: as §2

[16] = test system: Verconica persica (VERPE); experiment: Post-emergence herbicidal action against VERPE
Method in brief: as §2

Oryza sativa (ORYSA) = settings: crop plant compatibility
Method in brief: (§3)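 One-leaf-stage crops (2–3 wk post-sowing, sandy loam, greenhouse) sprayed on green parts; 0.5% additive, 600 l/ha water. Rated by eye ~3 wk later, % vs untreated; suffixes a/b/c mark different dosages.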

Zea mays (ZEAMX) [17] = settings: for Post-emergence action against ZEAMX in %: crop plant compatibility, 80 g/ha, effect vs untreated controls
Method in brief: as §3

[18] = test system: Alopecurus myosuroides (ALOMY); experiment: Post-emergence herbicidal action against ALOMY; settings: visual rating about 3 weeks after treatment vs untreated controls (100% = plants have died, 0% = like control plants)
Method in brief: as §2

Avena fatua (AVEFA) [19] = experiment: Post-emergence herbicidal action against AVEFA; settings: visual rating about 3 weeks after treatment
Method in brief: as §2

Lolium rigidum (LOLRI) [20] = experiment: Post-emergence herbicidal action against LOLRI
Method in brief: as §2

Avena fatua (AVEFA) [21] = experiment: Pre-emergence herbicidal action against AVEFA; settings: 320 g/ha, visual scoring after about 3 weeks vs untreated controls
Method in brief: as §1

[22] = test system: Verconica persica (VERPE); experiment: Pre-emergence herbicidal action against VERPE
Method in brief: as §1

Viola tricolor (VIOTR) [23] = experiment: Pre-emergence herbicidal action against VIOTR
Method in brief: as §1

Viola tricolor (VIOTR) [24] = experiment: Post-emergence herbicidal action against VIOTR
Method in brief: as §2

[25] = 80 g/ha, visual rating about 3 weeks after treatment vs untreated controls (100% = plants have died, 0% = like control plants)
[26] = 320 g/ha, visual rating about 3 weeks after treatment
[27] = 80 g/ha, effect in comparison to untreated controls

| Pre-emergence action against ZEAMX in % (Zea mays (ZEAMX) [8]; 80 g/ha) [%] | Post-emergence action against ORYSA in % (Oryza sativa (ORYSA); [27]) [%] | Structure (SMILES) | Pre-emergence action against ALOMY ([1]; 320 g/ha) [%] | Pre-emergence action against AMARE in % ([2]; 320 g/ha) [%] | Pre-emergence action against ECHCG in % [3] [%] | Pre-emergence action against LOLRI in % (Lolium rigidum (LOLRI) [4]; dosage 320 g/ha) [%] | Pre-emergence action against MATIN in % ([5]; dosage 320 g/ha) [%] | Pre-emergence action against POLCO in % ([6]; dosage 320 g/ha) [%] | Pre-emergence action against SETVI in % (Setaria viridis (SETVI) [7]; dosage 320 g/ha) [%] | Post-emergence action against ABUTH in % [9] [%] | Post-emergence action against AMARE in % [10, 25] [%] | Post-emergence action against AMARE in % [10, 26] [%] | Post-emergence action against ECHCG in % ([11]; dosage 320 g/ha) [%] | Post-emergence action against MATIN in % [12] [%] | Post-emergence action against PHBPU in % [13] [%] | Post-emergence action against POLCO in % ([14]; dosage 320 g/ha) [%] | Post-emergence action against SETVI in % (Setaria viridis (SETVI) [15]; dosage 320 g/ha) [%] | Post-emergence action against VERPE in % ([16]; 320 g/ha, VERPE) [%] | Pre-emergence action against AMARE in % ([2]; 80 g/ha) [%] | Post-emergence action against ECHCG in % ([11]; dosage 80 g/ha) [%] | other results |
| --- | --- | --- | --- | --- | --- | --- | --- | --- | --- | --- | --- | --- | --- | --- | --- | --- | --- | --- | --- | --- | --- |
| 0 | 0 | O=C(O)COc1nn(-c2ccccn2)c(-c2ccc(F)nc2)c1F [Example I-373] | 90 | 90 | 90 | 80 | 90 | 90 | 80 | 80 | 80 | 80 | 90 | 90 | 80 | 80 | 90 | 90 | – | – | Pre-emergence action against ZEAMX in % (Zea mays (ZEAMX) [8]; 320 g/ha): 0%; Post-emergence action against ZEAMX in % (Zea mays (ZEAMX) [17]): 0% |
| 0 | – | CCOC(=O)COc1nn(-c2ccccn2)c(-c2ccc(F)nc2)c1F [Example I-305] | 90 | 90 | 90 | 90 | 90 | – | 90 | – | 80 | 90 | 90 | 80 | 90 | 80 | 90 | 90 | 80 | 90 | Pre-emergence action against MATIN in % ([5]; dosage 80 g/ha): 80%; Post-emergence action against ALOMY in % ([18]; 320 g/ha): 100%; Post-emergence action against AVEFA in % (Avena fatua (AVEFA) [19]; 320 g/ha): 80%; Post-emergence action against LOLRI in % (Lolium rigidum (LOLRI) [20]; dosage 320 g/ha): 90%; Post-emergence action against ZEAMX in % (Zea mays (ZEAMX) [17]): 0% |
| 20 | – | CC(C)N(C)S(=O)(=O)NC(=O)COc1nn(-c2ncccc2F)c(-c2ccc(F)nc2)c1Br [Example I-53] | 100 | 100 | 80 | 100 | 90 | 90 | 100 | – | 90 | – | – | – | – | – | – | – | 90 | 80 | Pre-emergence action against ALOMY ([1]; 80 g/ha): 80%; Pre-emergence action against AVEFA in % (Avena fatua (AVEFA) [21]): 100%; Pre-emergence action against SETVI in % (Setaria viridis (SETVI) [7]; dosage 80 g/ha): 90%; Pre-emergence action against VERPE in % ([22]; dosage 320 g/ha): 100%; Pre-emergence action against VIOTR in % (Viola tricolor (VIOTR) [23]; 320 g/ha, Viola tricolor): 100%; Pre-emergence action against VIOTR in % (Viola tricolor (VIOTR) [23]; dosage 80 g/ha): 90%; Post-emergence action against ALOMY in % ([18]; 80 g/ha): 90%; Post-emergence action against SETVI in % (Setaria viridis (SETVI) [15]; dosage 80 g/ha): 80%; Post-emergence action against VERPE in % ([16]; dosage 80 g/ha): 80%; Post-emergence action against ORYSA in % (Oryza sativa (ORYSA); 20 g/ha, effect vs untreated controls): 10%; Post-emergence action against ZEAMX in % (crop plant compatibility) (Zea mays (ZEAMX) [17]; 20 g/ha, ZEAMX, effect in comparison to untreated controls): 10% |
| 20 | 0 | CCOC(=O)[C@@H](C)Oc1nn(-c2ncccc2Cl)c(-c2ccc(F)nc2)c1Br [Example I-27] | 100 | 100 | 100 | 100 | 80 | 100 | 100 | 90 | 90 | 90 | 90 | – | – | 80 | 90 | 90 | 90 | 90 | Pre-emergence action against AVEFA in % (Avena fatua (AVEFA) [21]): 100%; Pre-emergence action against LOLRI in % (Lolium rigidum (LOLRI) [4]; dosage 80 g/ha): 100%; Pre-emergence action against POLCO in % ([6]; dosage 80 g/ha): 90%; Pre-emergence action against VERPE in % ([22]; dosage 80 g/ha): 80%; Pre-emergence action against VERPE in % ([22]; dosage 320 g/ha): 100%; Pre-emergence action against VIOTR in % (Viola tricolor (VIOTR) [23]; 320 g/ha, Viola tricolor): 100%; Pre-emergence action against VIOTR in % (Viola tricolor (VIOTR) [23]; dosage 80 g/ha): 100%; Post-emergence action against ALOMY in % ([18]; 80 g/ha): 80%; Post-emergence action against ALOMY in % ([18]; 320 g/ha): 100%; Post-emergence action against AVEFA in % (Avena fatua (AVEFA) [19]; 80 g/ha): 100%; Post-emergence action against AVEFA in % (Avena fatua (AVEFA) [19]; 320 g/ha): 100%; Post-emergence action against LOLRI in % (Lolium rigidum (LOLRI) [20]; dosage 80 g/ha): 90%; Post-emergence action against LOLRI in % (Lolium rigidum (LOLRI) [20]; dosage 320 g/ha): 90%; Post-emergence action against POLCO in % ([14]; dosage 80 g/ha): 80%; Post-emergence action against VERPE in % ([16]; dosage 80 g/ha): 80%; Post-emergence action against VIOTR in % (Viola tricolor (VIOTR) [24]; 80 g/ha): 80%; Post-emergence action against VIOTR in % (Viola tricolor (VIOTR) [24]; 320 g/ha): 80% |
